Like-named read-outs stand apart in the source and are kept apart here.
Columns and labels:
Format in all cases: in vivo
[1] = system: barnyardgrass (Echinochloa crus-galli); experiment: Test A pre-/postemergence greenhouse herbicide test; details: Echinochloa crus-galli, 240 h, 0 to 100 scale (0 no effect, 100 complete control), approx. 10 d, read-out: Plant response rating, Barnyardgrass; for pest or weed control at 125 g/ha: 125 g ai/ha; for pest or weed control at 500 g/ha: 500 g ai/ha
In short: (§1)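 Greenhouse pot test, loam/sand soil. Pre: directed soil spray at seeding; post: foliar spray, 1–2 leaf, 2–10 cm height, same day. Read-out ~10 d: visual % control, 0–100 scale vs untreated.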

corn (Zea mays) = experiment: as above; details: Zea mays, 240 h, 0 to 100 scale (0 no effect, 100 complete control), approx. 10 d; for Corn plant response rating (crop injury, 0 = no effect, 100 = complete kill) at 125 g/ha: 125 g ai/ha; for Corn plant response rating (crop injury, 0 = no effect, 100 = complete kill) at 500 g/ha: 500 g ai/ha
In short: as §1

[2] = system: pigweed (Amaranthus retroflexus); experiment: as above; details: Amaranthus retroflexus, 240 h, 0 to 100 scale (0 no effect, 100 complete control), approx. 10 d, read-out: Plant response rating, Pigweed; for pest or weed control at 125 g/ha: 125 g ai/ha; for pest or weed control at 500 g/ha: 500 g ai/ha
In short: as §1

[3] = system: oat, wild (wild oat, Avena fatua); experiment: Test C pre-/postemergence greenhouse herbicide test; details: Postemergence
In short: (§2)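 Seeds in loam–sand blend sprayed preemergence, and 1- to 4-leaf plants (2–18 cm) sprayed postemergence, with compounds in non-phytotoxic solvent plus surfactant. Visual rating versus controls after 13–15 d in greenhouse, 0 (no effect) to 100 (complete control).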

[4] = system: ragweed (common ragweed, Ambrosia elatior); experiment: as above; details: Ambrosia artemisiifolia, Ragweed, read-out: Plant response rating; for pest or weed control at 31 g/ha: 31 g ai/ha; for pest or weed control at 62 g/ha: 62 g ai/ha; for pest or weed control at 125 g/ha: 125 g ai/ha
In short: as §2

[5] = system: morningglory (Ipomoea coccinea); experiment: as above; details: Morningglory
In short: as §2

[6] = system: blackgrass (Alopecurus myosuroides); experiment: as above; details: Alopecurus myosuroides, Blackgrass, read-out: Plant response rating; for pest or weed control at 31 g/ha: 31 g ai/ha; for pest or weed control at 62 g/ha: 62 g ai/ha; for pest or weed control at 125 g/ha: 125 g ai/ha; for pest or weed control at 250 g/ha: 250 g ai/ha
In short: as §2

[7] = system: pigweed (Amaranthus retroflexus); experiment: as above; details: Amaranthus retroflexus, Pigweed, read-out: Plant response rating; for pest or weed control at 62 g/ha: 62 g ai/ha; for pest or weed control at 125 g/ha: 125 g ai/ha; for pest or weed control at 250 g/ha: 250 g ai/ha
In short: as §2

[8] = system: johnsongrass (Sorghum halepense); experiment: as above; details: Sorghum halepense, Johnsongrass, read-out: Plant response rating; for pest or weed control at 31 g/ha: 31 g ai/ha; for pest or weed control at 62 g/ha: 62 g ai/ha; for pest or weed control at 125 g/ha: 125 g ai/ha; for pest or weed control at 250 g/ha: 250 g ai/ha
In short: as §2

[9] = system: wheat (winter wheat, Triticum aestivum); experiment: as above; details: Triticum aestivum, Wheat, read-out: Plant response rating; for plant injury at 62 g/ha: 62 g ai/ha; for plant injury at 125 g/ha: 125 g ai/ha; for plant injury at 250 g/ha: 250 g ai/ha
In short: as §2

## Cc1cc(=O)n(-c2ccc(C(F)(F)F)cc2)nc1Cc1ccnc(C(F)(F)F)c1 [Compound 2, 5-methyl-2-[4-(trifluoromethyl)phenyl]-6-[[2-(trifluoromethyl)-4-pyridinyl]methyl]-3(2H)-pyridazinone]
[1]; post-emergence, Postemergence
  pest or weed control at 125 g/ha: 80%
  pest or weed control at 500 g/ha: 90%
[1]; pre-emergence, Preemergence
  pest or weed control at 125 g/ha: 80%
  pest or weed control at 500 g/ha: 100%
Corn (Zea mays); post-emergence, Postemergence
  Corn plant response rating (crop injury, 0 = no effect, 100 = complete kill) at 125 g/ha: 70%
  Corn plant response rating (crop injury, 0 = no effect, 100 = complete kill) at 500 g/ha: 90%
Corn (Zea mays); pre-emergence, Preemergence
  Corn plant response rating (crop injury, 0 = no effect, 100 = complete kill) at 125 g/ha: 30%
  Corn plant response rating (crop injury, 0 = no effect, 100 = complete kill) at 500 g/ha: 50%
[2]; post-emergence, Postemergence
  pest or weed control at 125 g/ha: 90%
  pest or weed control at 500 g/ha: 100%
[2]; pre-emergence, Preemergence
  pest or weed control at 125 g/ha: 100%
  pest or weed control at 500 g/ha: 100%
[3]; 31 g ai/ha
  Plant response rating: 5
[3]; 62 g ai/ha
  Plant response rating: 5
[3]; 125 g ai/ha
  Plant response rating: 5
[3]; 250 g ai/ha
  Plant response rating: 5
[4]; post-emergence, Postemergence
  pest or weed control at 31 g/ha: 25%
  pest or weed control at 62 g/ha: 60%
  pest or weed control at 125 g/ha: 60%
[4]; pre-emergence, Preemergence
  pest or weed control at 31 g/ha: 15%
  pest or weed control at 62 g/ha: 60%
  pest or weed control at 125 g/ha: 60%
[4]; pre-emergence, Preemergence, 250 g ai/ha
  pest or weed control at 250 g/ha: 60%
[5]; Postemergence, 31 g ai/ha
  Plant response rating: 10
[5]; Postemergence, 125 g ai/ha
  Plant response rating: 15
[5]; Postemergence, 250 g ai/ha
  Plant response rating: 15
[5]; Preemergence, 31 g ai/ha
  Plant response rating: 55
[5]; Preemergence, 62 g ai/ha
  Plant response rating: 65
[5]; Preemergence, 125 g ai/ha
  Plant response rating: 85
[5]; Preemergence, 250 g ai/ha
  Plant response rating: 100
[6]; post-emergence, Postemergence
  pest or weed control at 31 g/ha: 5%
  pest or weed control at 62 g/ha: 5%
  pest or weed control at 125 g/ha: 10%
  pest or weed control at 250 g/ha: 15%
[6]; pre-emergence, Preemergence
  pest or weed control at 31 g/ha: 10%
  pest or weed control at 62 g/ha: 45%
  pest or weed control at 125 g/ha: 90%
  pest or weed control at 250 g/ha: 90%
[7]; post-emergence, Postemergence
  pest or weed control at 62 g/ha: 55%
  pest or weed control at 125 g/ha: 60%
  pest or weed control at 250 g/ha: 60%
[7]; pre-emergence, Preemergence, 31 g ai/ha
  pest or weed control at 31 g/ha: 100%
[7]; pre-emergence, Preemergence
  pest or weed control at 62 g/ha: 100%
  pest or weed control at 125 g/ha: 100%
  pest or weed control at 250 g/ha: 100%
[8]; post-emergence, Postemergence
  pest or weed control at 31 g/ha: 5%
  pest or weed control at 62 g/ha: 5%
  pest or weed control at 125 g/ha: 10%
  pest or weed control at 250 g/ha: 10%
[8]; pre-emergence, Preemergence
  pest or weed control at 31 g/ha: 65%
  pest or weed control at 62 g/ha: 70%
  pest or weed control at 125 g/ha: 80%
  pest or weed control at 250 g/ha: 90%
[9]; post-emergence, Postemergence, 31 g ai/ha
  plant injury at 31 g/ha: 5%
[9]; post-emergence, Postemergence
  plant injury at 62 g/ha: 5%
  plant injury at 125 g/ha: 5%
  plant injury at 250 g/ha: 5%
[9]; pre-emergence, Preemergence
  plant injury at 62 g/ha: 0%
  plant injury at 125 g/ha: 10%
  plant injury at 250 g/ha: 30%

— patent US10202361B2, “Pyridazinones as herbicides” (E I DU PONT DE NEMOURS AND COMPANY, priority 2014, dated 2019)
